Assay type in all cases: functional
The test system of assay [1] is SH-SY5Y. Kind of assay: Neuroprotective activity in human SH-SY5Y cells assessed as reduction in H2O2-induced cell damage by measuring cell viability level at 12.5 uM by MTT assay (reference value: 67.95%). (In general: Tetrazolium dyes change colour on reduction, which living cells bring about.)
Assay [2] concerns SH-SY5Y. Kind of assay: Neuroprotective activity in human SH-SY5Y cells assessed as reduction in H2O2-induced apoptosis by measuring viable cells level at 12.5 uM by annexin V-FITC and propidium iodide staining based flow cytometry (reference value: 76.7%). (In general: Flow cytometry measures light scatter and fluorescence of single cells or particles in a stream.)
Assay [3] deals with SH-SY5Y. Put plainly: Neuroprotective activity in human SH-SY5Y cells assessed as reduction in H2O2-induced apoptosis by measuring early apoptotic cells level at 12.5 uM by annexin V-FITC and propidium iodide staining based flow cytometry (reference value: 11.3%). On the set-up: scale not given: the % may be the effect or the level left.
In assay [4] the test system is SH-SY5Y. Put plainly: Neuroprotective activity in human SH-SY5Y cells assessed as reduction in H2O2-induced apoptosis by measuring late apoptotic cells level at 12.5 uM by annexin V-FITC and propidium iodide staining based flow cytometry (reference value: 5.26%). The arrangement: scale not given: the % may be the effect or the level left.
The subject of assay [5] is SH-SY5Y. Kind of assay: Neuroprotective activity in human SH-SY5Y cells assessed as reduction in H2O2-induced apoptosis by measuring necrotic cells level at 12.5 uM by annexin V-FITC and propidium iodide staining based flow cytometry (reference value: 6.69%). The arrangement: scale not given: the % may be the effect or the level left.
Assay [6] concerns SH-SY5Y. Kind of assay: Neuroprotective activity in human SH-SY5Y cells assessed as reduction in H2O2-induced cell damage by measuring cell viability level at 50 uM by MTT assay (reference value: 67.95%).

As for `CC1=C[C@@]2(O)OC(=O)C(C)=C2C[C@H]2[C@@H](C)CC[C@@]12O`, the Activity in assay [1] came to 75.64%; in assay [2], 87.7%; in assay [3], 4.25%; in assay [4], 2.7%; in assay [5] it was 5.37%.
Regarding `CC1=C(C[C@@H]2/C(=C(/C)CO)CC[C@@H]2C)C(=O)OC1`, the Activity in assay [1] amounted to 79.94%; in assay [2], 79.2%; in assay [3] it was 5.41%; in assay [4], 3.29%; in assay [5] it was 12.1%.
In the same order, the values of `CC1=C2CC[C@H](C)[C@@H]2C[C@H]2C(=O)[C@@H]1OC[C@@]2(O)CO` are 79.34%, 87.7%, 4.19%, 2.67% and 5.41%.
In the case of `Cc1c(C)c2c(c(C)c1O)CCC(C)(C(=O)O)O2` (stereo unspecified) [TROLOX], the Activity in assay [6] is on record as 78.65%.

The values above are taken from ChEMBL document CHEMBL4392878, “Guaiane-Type Sesquiterpenoids from the Roots of Daphne genkwa and Evaluation of Their Neuroprotective Effects” (2019).
